{"source": "patent US10179913B2", "about": "“MicroRNA-328 anti-sense composition and therapeutic use” (KAOHSIUNG MEDICAL UNIVERSITY, priority 2015, dated 2019)", "key": {"miR-328": {"test_system": "miR-328", "test": "In vitro inhibition of miR-328 expression by antisense oligonucleotides transfected into ARPE-19 RPE cells (qRT-PCR, normalized to U6)", "assay_type": "cell-based, human", "conditions": "for inhibitory effect on miR-328 expression: RPE cells (ARPE-19), Lipofectamine 2000 transfection, 24 hours", "description": "Cell Culture, Treatments, and Transfection\nAn RPE cell line called “ARPE-19” was grown in Dulbecco's modified Eagle's medium (DMEM)/F12 medium. The cell line was grown with 1% penicillin/streptomycin and 10% heat-inactivated fetal bovine serum (FBS) at 37° C. in a humidified atmosphere of 95% air/[…] carbon dioxide (CO2). To conduct the transfection experiments, cells were seeded into a 12-well plate at a density of 1×10^5 cells/well. After achieving 70% confluence in a well, antisense oligonucleotides (concentrations of 30, 50 and 100 nM) were transfected with Lipofectamine 2000 (Invitrogen) according to the manufacturer's instructions. After 24 hours of incubation, cells were lysed for further studies.\nDetect the Inhibition of miR-328 Expression by Antisense Oligonucleotides\nTotal RNA was extracted from cultured cells using Trizol according to the manufacturer's instructions. RNA purity was checked using A260/A280 readings. miR-328 was first reversed transcribed to miR-328 cDNA using the following procedure: 5 ng of RNA was reverse transcribed with miR-328 specific primer and MultiScribe reverse transcriptase kit (Applied Biosystems). To measure the miR-328 expression, quantitative real-time PCR was performed on an ABI 7500 real-time PCR machine (Applied Biosystems) with miR-328 specific probe according to manufacturer's instructions (Applied Biosystems). The inhibitory effect by antisense oligonucleotides was evaluated by measuring the level of miR-328 cDNA by quantitative real-time PCR. The expression level of miR-328 was normalized to that of a small non-coding nuclear RNA U6 as the internal control."}, "[1]": {"test_system": "myopia-induced C57BL/6J mice", "test": "Example 4: efficacy in myopia-induced mice, delta axial length", "assay_type": "in vivo", "conditions": "for activity in treating myopia in mice (in words): decrease of average axial length", "description": "The 21 days old C57BL/6J mice were purchased from the National Laboratory Animal Center, Taiwan. All animal experiments were in compliance with the ARVO Statement for the Use of Animals in Ophthalmic and Vision Research. The procedure of myopia induction is described briefly as the following: Right eyes of the 23 days old mice were covered to induce myopia (i.e. nearsightedness) and the left eyes were uncovered. Then the right eyes of the myopia-induced mice were treated with 30 μL of saline (i.e. control group), DNA16mer, DNA17mer, LNA403, LNA404, or LNA405, at 1 μM on 30th, 37th and 44th day. Mice were sacrificed on 51th day and the eyes were collected. The isolated eyes were photographed under a dissection microscope and the axial lengths were measured using […] Myopia (nearsightedness) causes elongation of axial length, which is the major pathological change in myopia. The difference of axial length (i.e. delta axial length) between the covered right eye and the non-covered left eye of the same mouse indicates the severity of myopia. Statistical evaluation was done by using Mann-Whitney U test. Analysis with p-values<0.05 being considered significant."}, "[2]": {"test_system": "myopia-induced C57BL/6J mice", "test": "Example 5: validation of DNA 16mer and LNA 403 versus atropine in myopia-induced mice", "assay_type": "in vivo", "conditions": "1 μM", "description": "The 21 days old C57BL/6J mice were purchased from the National Laboratory Animal Center, Taiwan. All animal experiments were in compliance with the ARVO Statement for the Use of Animals in Ophthalmic and Vision Research. The procedure of myopia induction is described briefly as the following: Right eyes of the 23 days old mice were covered for 4 weeks to induce myopia (i.e. nearsightedness) and the left eyes were uncovered. Then the right eyes of the myopia-induced mice were treated with 30 μL of saline (i.e. negative control group), 1% atropine (i.e. positive control group), DNA16mer or LNA403 at 1 μM on 30th, 37th and 44th day. Mice were sacrificed on 51th day and the eyes were collected. The isolated eyes were photographed under a dissection microscope and the axial lengths were measured using imageJ and a proprietary software for automatic measure. Myopia (nearsightedness) causes elongation of axial length, which is the major pathological change in myopia. The difference of axial length (i.e. delta axial length) between the covered right eye and the non-covered left eye of the same mouse indicates the severity of myopia. Statistical evaluation was done by using Mann-Whitney U test. Analysis with p-values <0.05 being considered significant."}, "[3]": {"test_system": "myopia-induced C57BL/6J mice", "test": "Example 6: confirmation of DNA 16mer by a CRO in myopia-induced mice", "assay_type": "in vivo", "conditions": "for left eye axial, mm Mean: left eye uncovered", "description": "The procedure of myopia induction is: The 21 days old C57BL/6J mice were purchased from the National Laboratory Animal Center, Taiwan. All animal experiments were in compliance with the ARVO Statement for the Use of Animals in Ophthalmic and Vision Research. The procedure of myopia induction is described briefly as the following: Right eyes of the 23 days old mice were covered for 4 weeks to induce myopia and the left eyes were uncovered. Then the right eyes of the myopia-induced mice were treated with […], of saline (i.e. negative control group), 1% atropine (i.e. positive control group), 10 nM, 100 nM, and 1 μM of DNA 16mer on 30th, 37th and 44th day. Mice were sacrificed on 51th day and the eyes were collected. The isolated eyes were photographed under a dissection microscope and the axial lengths were measured using imageJ and a proprietary software for automatic measure. Myopia (nearsightedness) causes elongation of axial length, which is the major pathological change in myopia. The difference of axial length (i.e. delta axial length) between the covered right eye and the non-covered left eye of the same mouse indicates the severity of myopia."}, "myopic pigmented rabbits": {"test_system": "myopic pigmented rabbits", "test": "Example 7: DNA 16mer in myopic pigmented rabbits, delta axial length by A-scan", "assay_type": "in vivo, rabbit", "conditions": "20 μL to right eye every other day from day 35, AXL of day 61", "description": "The procedure of myopia induction: The 3 days old pigmented rabbits were purchased from the DA-ZONG livestock farm, Taiwan. All animal experiments were in compliance with the ARVO Statement for the Use of Animals in Ophthalmic and Vision Research. On the age of 7 days, the right eye of the rabbit was covered for 8 weeks to induce myopia, and the left eye left uncovered. The axial lengths (AXL) of both eyes were measured by A-scan (Sonomed®, PACSCAN 300A, USA) once a week since day 21. We defined myopia as right eye AXL is longer than left eye AXL by 0.2 mm or longer on day 35. If a rabbit reached this defined criterion, the right eye of such a myopic rabbit was treated with […], of saline (i.e. control group) or DNA16mer (20 μL) at 10 μM or 50 uM every other day since day 35 till day 63. The final AXL measured on day 61 was used to obtain to calculate the difference between right AXL and left AXL (i.e. delta AXL). If there is no therapeutic effect, the delta AXL will be a positive value."}, "Safety in animal studies": {"test": "Safety in animal studies", "assay_type": "in vivo"}}, "note": "Marks after values point to notes of the source that are not given here."}
{"substance": "5′-AGGGCAGAGAGGGCCA-3′ (DNA, backbone not given here) [DNA 16mer, anti-sense miR-328 oligodeoxyribonucleotide]", "values": [{"measurement": "inhibitory effect on miR-328 expression", "setting": "miR-328; 30 nM", "value": 39, "unit": "%"}, {"measurement": "inhibitory effect on miR-328 expression", "setting": "miR-328; 50 nM", "value": 35, "unit": "%"}, {"measurement": "inhibitory effect on miR-328 expression", "setting": "miR-328; 100 nM", "value": 49, "unit": "%"}, {"measurement": "inhibition of miR-328 expression in vitro (in words)", "setting": "miR-328; RPE cells, 30, 50 and 100 nM", "value": "inhibited"}, {"measurement": "reduction of delta axial length compared to control group", "setting": "[1]; 1 μM on day 30, 37 and 44, versus saline", "value": 0.077, "unit": "mm"}, {"measurement": "activity in treating myopia in mice (in words)", "setting": "[1]; 1 μM, listed as 16mer", "value": "exhibited an activity for treating myopia"}, {"measurement": "activity in treating myopia in mice (in words)", "setting": "[1]; 1 μM, listed as DNA16mer", "value": "effective in treating myopia in mice"}, {"measurement": "average delta axial length compared with control animals (in words)", "setting": "[1]; 1 μM, versus saline, Mann-Whitney U test", "value": "statistically significantly smaller"}, {"measurement": "Delta axial length, mm mean (SD)", "setting": "[1]; right (myopia) minus left eye, 1 μM, 30 μL to right eye on day 30, 37 and 44, eyes collected day 51", "value": "−0.059 (0.061)* mm"}, {"measurement": "efficacy in reducing elongation of eyeball compared with 1% atropine (in words)", "setting": "[2]", "value": "more effective than 1% atropine"}, {"measurement": "Mean of delta AXL", "setting": "[2]; right eye covered 4 weeks, 30 μL on day 30, 37 and 44, day 51", "value": "−0.055"}, {"measurement": "Delta axial length Mean", "setting": "[3]; 10 nM", "value": "−0.056"}, {"measurement": "right eye axial, mm Mean", "setting": "[3]; 10 nM to right (myopia) eye", "value": 3.083, "unit": "mm"}, {"measurement": "left eye axial, mm Mean", "setting": "[3]; 10 nM to right eye", "value": 3.139, "unit": "mm"}, {"measurement": "Delta axial length Mean", "setting": "[3]; 100 nM", "value": "−0.069"}, {"measurement": "right eye axial, mm Mean", "setting": "[3]; 100 nM to right (myopia) eye", "value": 3.023, "unit": "mm"}, {"measurement": "left eye axial, mm Mean", "setting": "[3]; 100 nM to right eye", "value": 3.092, "unit": "mm"}, {"measurement": "Delta axial length Mean", "setting": "[3]; 1 μM", "value": "−0.058"}, {"measurement": "right eye axial, mm Mean", "setting": "[3]; 1 μM to right (myopia) eye", "value": 3.052, "unit": "mm"}, {"measurement": "left eye axial, mm Mean", "setting": "[3]; 1 μM to right eye", "value": 3.110, "unit": "mm"}, {"measurement": "Delta axial length Mean", "setting": "myopic pigmented rabbits; 10 μM", "value": "−0.234"}, {"measurement": "Delta axial length Mean", "setting": "myopic pigmented rabbits; 50 μM", "value": "−0.370"}, {"measurement": "safety in animal studies (in words)", "setting": "Safety in animal studies", "value": "safe"}]}
